How the values were obtained:
Test in all cases: relative viability (nuclei count vs DMSO), 5 days (fraction); higher = more cells survive
Bortezomib + Decitabine = compound: CC(C)C[C@H](NC(=O)[C@H](Cc1ccccc1)NC(=O)c1cnccn1)B(O)O [Bortezomib] + Nc1ncn([C@H]2C[C@H](O)[C@@H](CO)O2)c(=O)n1 [Decitabine] (partner 2 µM)
Summary of the method: (§1)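 Five library-drug doses in √10 steps were combined with a fixed anchor-drug dose, or a single drug was given alone, by pin tool to lung cancer cell lines in 1536-well plates the day after seeding. Nuclei were stained and counted after 5 days. Relative viability is the nuclei count in treated wells over that in vehicle wells, taken as the median of duplicate plates.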

[1] = compound: CC1=CC(=NN1)NC2=CC(=NC(=N2)/C=C/C3=CC=CC=C3)N4CCN(CC4)C + CC(=O)Nc1cccc(-n2c(=O)n(C3CC3)c(=O)c3c(Nc4ccc(I)cc4F)n(C)c(=O)c(C)c32)c1 [Trametinib] (partner 0.02 µM)
Summary of the method: as §1

[2] = compound: CC1=CC(=NN1)NC2=CC(=NC(=N2)/C=C/C3=CC=CC=C3)N4CCN(CC4)C + CCNC(=O)c1noc(-c2cc(C(C)C)c(O)cc2O)c1-c1ccc(CN2CCOCC2)cc1 [Luminespib] (partner 0.01 µM)
Summary of the method: as §1

[3] = compound: CC1=CC(=NN1)NC2=CC(=NC(=N2)/C=C/C3=CC=CC=C3)N4CCN(CC4)C + N=C(N)NC(=N)NCCc1ccccc1 [Phenformin] (partner 250 µM)
Summary of the method: as §1

Cell Line | relative viability (Bortezomib + Decitabine; first compound 0.0002 µM) | relative viability (Bortezomib + Decitabine; first compound 0.000632 µM) | relative viability (Bortezomib + Decitabine; first compound 0.002 µM) | relative viability (Bortezomib + Decitabine; first compound 0.006325 µM) | relative viability (Bortezomib + Decitabine; first compound 0.02 µM) | relative viability ([1]; first compound 0.08 µM) | relative viability ([1]; first compound 0.253 µM) | relative viability ([1]; first compound 0.8 µM) | relative viability ([1]; first compound 2.53 µM) | relative viability ([1]; first compound 8 µM) | relative viability ([2]; first compound 0.08 µM) | relative viability ([2]; first compound 0.8 µM) | relative viability ([2]; first compound 2.53 µM) | relative viability ([2]; first compound 8 µM) | relative viability ([3]; first compound 0.08 µM) | relative viability ([3]; first compound 0.8 µM) | relative viability ([3]; first compound 2.53 µM) | relative viability ([3]; first compound 8 µM) | relative viability ([2]; first compound 0.253 µM) | relative viability ([3]; first compound 0.253 µM)
NCI-H661 | 0.553 | 0.553 | 0.529 | 0.395 | 0.204 | 0.593 | 0.478 | 0.628 | 0.256 | 0.242 | 0.907 | 0.919 | 0.55 | 0.321 | 0.282 | 0.265 | 0.226 | 0.211 | – | –
LU99A | 0.841 | 0.88 | 0.885 | 0.825 | 0.202 | 0.54 | 0.311 | 0.532 | 0.328 | 0.165 | 0.254 | 0.192 | 0.197 | 0.161 | 0.748 | 0.716 | 0.411 | 0.153 | 0.235 | 0.707
LCLC-97TM1 | 0.245 | 0.238 | 0.21 | 0.0935 | 0.0627 | 0.186 | 0.142 | 0.209 | 0.182 | 0.0966 | 0.806 | 0.67 | 0.341 | 0.0891 | 0.448 | 0.41 | 0.236 | 0.154 | 0.796 | 0.468
LC-2-ad | 0.73 | 0.81 | 0.931 | 0.516 | 0.225 | 0.873 | 0.89 | 0.868 | 0.463 | 0.196 | 1.11 | 0.693 | 0.611 | 0.204 | 0.554 | 0.501 | 0.251 | 0.172 | 1.23 | 0.571
NCI-H1395 | 0.774 | 0.702 | 0.431 | 0.287 | 0.297 | 0.964 | 1.03 | 0.975 | 0.659 | 0.263 | 0.782 | 0.699 | 0.401 | 0.293 | 0.494 | 0.427 | 0.327 | 0.264 | 0.687 | 0.434
HOP-62 | 0.232 | 0.204 | 0.223 | 0.106 | 0.0681 | 0.382 | 0.297 | 0.36 | 0.337 | 0.163 | 0.953 | 0.888 | 0.849 | 0.35 | 0.713 | 0.688 | 0.459 | 0.26 | 0.966 | 0.758
NCI-H2347 | 0.631 | 0.601 | 0.648 | 0.466 | 0.429 | 0.291 | 0.231 | 0.264 | 0.291 | 0.216 | 0.524 | 0.501 | 0.389 | 0.22 | 0.402 | 0.435 | 0.38 | 0.208 | 0.371 | 0.347
NCI-H2087 | 0.233 | 0.265 | 0.141 | 0.0621 | 0.0401 | 0.155 | 0.18 | 0.151 | 0.072 | 0.0577 | 0.209 | 0.158 | 0.119 | 0.136 | 0.536 | 0.488 | 0.105 | 0.1 | 0.212 | 0.318
EPLC-272H | 0.378 | 0.348 | 0.321 | 0.0848 | 0.065 | 0.251 | 0.261 | 0.292 | 0.213 | 0.126 | 0.456 | 0.149 | 0.11 | 0.0775 | 0.315 | 0.258 | 0.147 | 0.135 | 0.458 | 0.24
LXF-289 | 0.364 | 0.384 | 0.394 | 0.196 | 0.112 | 0.637 | 0.623 | 0.637 | 0.592 | 0.442 | 0.658 | 0.672 | 0.33 | 0.104 | 0.478 | 0.496 | 0.265 | 0.114 | 0.755 | 0.464
COR-L23 | 0.439 | 0.417 | 0.396 | 0.0939 | 0.0825 | 0.549 | 0.244 | 0.574 | 0.102 | 0.0853 | 0.723 | 0.593 | 0.398 | 0.0972 | 0.45 | 0.414 | 0.0934 | 0.0951 | 0.813 | 0.479
RERF-LC-KJ | 0.663 | 0.707 | 0.531 | 0.226 | 0.219 | 0.905 | 0.956 | 0.928 | 0.605 | 0.295 | 1.33 | 0.944 | 0.269 | 0.264 | 0.417 | 0.372 | 0.256 | 0.245 | 1.2 | 0.457
NCI-H1755 | 0.699 | 0.716 | 0.734 | 0.452 | 0.237 | 0.78 | 0.728 | 0.716 | 0.66 | 0.389 | 0.496 | 0.748 | 0.346 | 0.157 | 0.658 | 0.551 | 0.333 | 0.221 | 0.416 | 0.616
PC-14 | 0.254 | 0.234 | 0.195 | 0.0599 | 0.0702 | 0.85 | 0.805 | 0.835 | 0.0586 | 0.038 | 0.169 | 0.12 | 0.121 | 0.0829 | 0.628 | 0.567 | 0.166 | 0.064 | 0.158 | 0.618
NCI-H322M | 0.783 | 0.671 | 0.705 | 0.6 | 0.45 | 0.485 | 0.57 | 0.811 | 0.337 | 0.327 | 0.8 | 0.639 | 0.326 | 0.246 | 0.759 | 0.688 | 0.31 | 0.218 | 1.06 | 0.852
NCI-H1666 | 0.782 | 0.839 | 0.728 | 0.646 | 0.477 | 0.834 | 0.761 | 0.875 | 0.854 | 0.563 | 0.987 | 1.02 | 0.985 | 0.328 | 0.62 | 0.542 | 0.391 | 0.302 | 1.01 | 0.556
